Reference: ChEMBL document CHEMBL2073949, “Dehydroepiandrosterone sulfate (DHEAS): identification of a carrier protein in human liver and brain” (FEBS Lett, 1998)

How the values were obtained:
Type in all cases: functional, cell-based, Oocyte
[1] = molecular target: T1, Solute carrier organic anion transporter family member 1A2 (OATP1A2) (Homo sapiens, UniProt P46721); experiment: TP_TRANSPORTER: inhibition of DHEAS uptake (DHEAS: 5 uM, E1S: 100 uM) in Xenopus laevis oocytes; details: Xenopus laevis oocytes expressing OATP1A2 (SLCO1A2), probe DHEAS (5 uM)
T1 sequence (P46721 whole entry): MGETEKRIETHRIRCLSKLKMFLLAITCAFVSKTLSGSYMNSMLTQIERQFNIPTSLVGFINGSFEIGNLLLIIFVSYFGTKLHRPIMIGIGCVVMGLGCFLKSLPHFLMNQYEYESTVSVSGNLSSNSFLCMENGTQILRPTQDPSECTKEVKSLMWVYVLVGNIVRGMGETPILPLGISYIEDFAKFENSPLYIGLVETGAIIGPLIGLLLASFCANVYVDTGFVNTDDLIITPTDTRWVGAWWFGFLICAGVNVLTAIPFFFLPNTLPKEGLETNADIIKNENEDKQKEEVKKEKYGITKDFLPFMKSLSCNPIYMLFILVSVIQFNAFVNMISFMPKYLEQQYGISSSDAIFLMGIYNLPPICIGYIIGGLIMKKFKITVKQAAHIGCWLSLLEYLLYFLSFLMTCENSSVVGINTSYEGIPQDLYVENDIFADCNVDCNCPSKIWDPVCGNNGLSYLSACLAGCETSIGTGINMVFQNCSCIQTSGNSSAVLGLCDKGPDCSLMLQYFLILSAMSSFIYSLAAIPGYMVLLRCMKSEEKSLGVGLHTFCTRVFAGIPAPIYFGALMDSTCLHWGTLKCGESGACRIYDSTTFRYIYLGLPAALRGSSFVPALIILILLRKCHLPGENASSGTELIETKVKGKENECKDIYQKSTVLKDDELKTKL

[2] = molecular target: T1, Solute carrier organic anion transporter family member 1A2 (OATP1A2); experiment: TP_TRANSPORTER: inhibition of DHEAS uptake (DHEAS: 5 uM, Dexamethasone: 100 uM) in Xenopus laevis oocytes; details: Xenopus laevis oocytes expressing OATP1A2 (SLCO1A2), probe DHEAS (5 uM)
[3] = molecular target: T1, Solute carrier organic anion transporter family member 1A2 (OATP1A2); experiment: TP_TRANSPORTER: inhibition of DHEAS uptake (DHEAS: 5 uM, TUDC: 100 uM) in Xenopus laevis oocytes; details: Xenopus laevis oocytes expressing OATP1A2 (SLCO1A2), probe DHEAS (5 uM)
[4] = molecular target: T1, Solute carrier organic anion transporter family member 1A2 (OATP1A2); experiment: TP_TRANSPORTER: inhibition of DHEAS uptake (DHEAS: 5 uM, TCDC: 100 uM) in Xenopus laevis oocytes; details: Xenopus laevis oocytes expressing OATP1A2 (SLCO1A2), probe DHEAS (5 uM)
[5] = molecular target: T1, Solute carrier organic anion transporter family member 1A2 (OATP1A2); experiment: TP_TRANSPORTER: uptake in Xenopus laevis oocytes; details: Xenopus laevis oocytes expressing OATP1A2 (SLCO1A2)
[6] = molecular target: T1, Solute carrier organic anion transporter family member 1A2 (OATP1A2); experiment: TP_TRANSPORTER: inhibition of DHEAS uptake (DHEAS: 5 uM, Estradiol-3-sulfate: 100 uM) in Xenopus laevis oocytes; details: Xenopus laevis oocytes expressing OATP1A2 (SLCO1A2), probe DHEAS (5 uM)

**Q.** `C[C@]12CC[C@@H]3c4ccc(OS(=O)(=O)O)cc4CC[C@H]3[C@@H]1CCC2=O` [ESTRONE SULFURIC ACID] was tested. Which inhibition at 100 µM [1] did it give?
**A.** 82.3%

**Q.** `C[C@@H]1C[C@H]2[C@@H]3CCC4=CC(=O)C=C[C@]4(C)[C@@]3(F)[C@@H](O)C[C@]2(C)[C@@]1(O)C(=O)CO` [DEXAMETHASONE] was tested. Which inhibition at 100 µM [2] did it give?
**A.** 97.3%

**Q.** `C[C@H](CCC(=O)NCCS(=O)(=O)O)[C@H]1CC[C@H]2[C@@H]3[C@@H](O)C[C@@H]4C[C@H](O)CC[C@]4(C)[C@H]3CC[C@]12C` [TAURURSODIOL] was tested. Which inhibition at 100 µM [3] did it give?
**A.** 85.7%

**Q.** Which inhibition at 100 µM [4] does the source give for `C[C@H](CCC(=O)NCCS(=O)(=O)O)[C@H]1CC[C@H]2[C@@H]3[C@H](O)C[C@@H]4C[C@H](O)CC[C@]4(C)[C@H]3CC[C@]12C` [TAUROCHENODEOXYCHOLATE] here?
**A.** 75.2%

**Q.** How did the Km [5] turn out when `C[C@]12CC[C@H](OS(=O)(=O)O)CC1=CC[C@@H]1[C@@H]2CC[C@]2(C)C(=O)CC[C@@H]12` [PRASTERONE SULFURIC ACID] was run?
**A.** 6.6 µM

**Q.** Which inhibition at 100 µM [6] does the source give for `C[C@]12CC[C@@H]3c4ccc(OS(=O)(=O)O)cc4CC[C@H]3[C@@H]1CC[C@@H]2O` here?
**A.** 92.9%
